Measurements: patent US20070196883A1, “ENZYME” (UNIVERSITY OF DUNDEE, priority 1999, published 2007)
“Also recorded” adds a separate entry of the source.

Tests used:
GST-PIF/PDK1 complex = target: T1, GST-PIF/PDK1 complex (Homo sapiens, UniProt O15530); assay: Phosphorylation of GST-PKBα at Ser473 by GST-PIF/PDK1 (P-473 immunoblot); format: biochemical; conditions: lipid 10 μM in PtdCho/PtdSer vesicles, MgATP, 60 min 30° C.
T1 construct: endogenous in cells; host or cells: 293 cells transfected with pEBG2T GST-PIF; endogenous PDK1 co-purified on glutathione-Sepharose
Description: FIG. 5. The ability of GST-PIF to phosphorylate PKBα at Ser473 is dependent upon the presence of PDK1. GST-PIF purified from 293 cells, FIG. 2C (20 μg in 50 μl) was incubated with Protein G-Sepharose (10 μl) conjugated with either no antibody (control), MSK1 antibody A [40] (5 μg, non specific antibody), a PDK1 antibody raised against the whole protein (5 μg) or a PDK1 peptide antibody raised against the 16 C-terminal amino acid residues of PDK1 (5 μg, peptide antibody) in the presence or absence of the PDK1 C-terminal peptide immunogen (0.2 mM) to which this antibody was raised. After incubation on a shaking platform for 60 min at 4° C., the suspension was centrifuged and GST-PIF in the supernatant (2.0 μg) was incubated with GST-PKBα and MgATP for 60 min at 30° C. in the presence or absence of phospholipid vesicles containing 100 μM PtdCho, 100 μM PtdSer, and 10 μM sn-1-stearoyl-2-arachidonoyl-D-PtdIns(3,4,5)P3 (1,2-SAD-PtdIns(3,4,5)P3), or sn-1,2 di-palmitoyl-D-PtdIns(3,4,5)P3 (C16-PtdIns(3,4,5)P3) or sn-1,2 di-palmitoyl-D-PtdIns(3,4)P2 (C16-PtdIns(3,4)P2). The reactions were terminated by making the solutions 1% in SDS, and the samples were subjected to SDS/polyacylamide gel electrophoresis and immunoblotted using the P-Ser473 antibody. Identical results were obtained in 2 separate experiments (B) The wild type and mutant GST-PIF proteins (2.0 μg) used in FIG. 3 were incubated with GST-PKBα and MgATP for 60 min at 30° C. in the presence or absence of lipid vesicles containing 10 μM sn-1-stearoyl-2-arachidonoyl-D-PtdIns(3,4,5)P3 and the degree of phosphorylation of PKBα at Ser473 was established by immunoblotting. Similar results were obtained in 4 separate experiments using 2 different preparations of the wild type and mutant GST-PIF proteins.
FIG. 7. Specificity of phosphoinositide-dependent PIF/PDK1-induced phosphorylation of Thr308 and Ser473 of PKBα. GST-PKBα was incubated for 60 min at 30° C. with GST-PIF purified from 293 cells (which is associated with endogenous PDK1 see FIG. 3) (1.0 μg), MgATP and phospholipid vesicles containing 100 μM PtdCho, 100 μM PtdSer, and various PtdIns lipids (numbered 1-11, see below) all at a final concentration of 10 μM in the assay. In panel A the reactions were terminated by the addition of Triton X100 and the increase in specific activity of GST-S473D-PKBα (U/mg), determined, relative to a control incubation in which GST-PIF was omitted (±SEM for 6 determinations, two independent experiments). The basal activity of GST-S473D-PKBα was 3.5 U/mg. In Panel B the reactions were terminated by making the solutions 1% in SDS, the samples were subjected to SDS/polyacylamide gel electrophoresis and the extent of PKBα phosphorylation was established using the phospho-specific antibody that recognises PKBα phosphorylated at Ser 473. In B the results of 2 separate experiments with different preparations of lipid are shown. Lipid 1, Buffer control; Lipid 2, PtdIns 3P; Lipid 3, n-1,2-dipalmitoyl PtdIns(3,4)P2; Lipid 4, PtdIns(3,5)P2; Lipid 5, PtdIns(4,5)P2; Lipid 6, sn-1,2-dipalmitoyl D-PtdIns(3,4,5)P3; Lipid 7, rac-1,2-dilinoleoyl phosphatidyl D/L-myo-inositol 3,4,5trisphosphate; Lipid 8, sn-1-stearoyl, 2-arachidonoyl D-PtdIns(3,4,5,)P3; Lipid 9, sn-1-stearoyl, 2-arachidonoyl L-PtdIns(3,4,5,)P3; Lipid 10, sn-2-stearoyl, 3-arachidonoyl D-PtdIns(3,4,5,)P3; Lipid 11, sn-2-ste aroyl, 3-arachidonoyl L-PtdIns(3,4,5,)P3.
Phosphorylation of GST-PKBα by incubation with GST-PIF. In experiments in which the phosphorylation of PKBα was determined using the phospho-specific Ser473 PKBα antibodies, the incubations were identical to the Stage 1 described above except that the reactions were terminated by the addition of 1% (by mass) SDS and immunoblotting is carried out as described below. In experiments in which the sites of phosphorylation on PKBα are determined the incubations were identical to the Stage 1 described above except [γ^32P] ATP (1000-2000 cpm/pmol) was used instead of unlabelled ATP. […]

PDK1 = assay: Activation of GST-ΔPH-PKBα by PDK1 with or without PIF and phosphoinositide; format: biochemical; conditions: for rate at which GST-PIF/PDK1 complex activates GST-ΔPH-PKBα, presence versus absence of lipid: GST-PIF/PDK1 complex purified from 293 cells
Description: FIG. 8. Maximal activation of PKB by PDK1/PIF requires PtdIns(3,4,5)P3 to interact with both PKB and PDK1. […] The basal activity of GST-ΔPH-PKBα was 3.0 U/mg.
Measurement of PKBα activation after incubation with GST-PIF. This assay was carried out in 2 stages, as described previously; briefly, in the first, GST-PKBα was incubated with GST-PIF (or other indicated PDK1 proteins in the presence or absence of peptides) in the presence of MgATP and phospholipid vesicles.
In Stage 1, an 15 μl reaction mixture was set up containing 66.5 mM Tris/HCl pH 7.5, 0.13 mM EGTA, 0.13% (by vol) 2-mercaptoethanol, 3.3 μM PKI, 1.3 μM microcystin-LR, 13.3 mM Mg(Ac)2, 133 μM unlabelled ATP, 0.4 μM GST-PKBA, 133 μM PtdSer, 133 μM PtdCho in the presence or absence of 13.3 μM PtdIns(3,4,5)P3. The assay was initiated by the addition of 5 μl of 0.2 mg/ml GST-PIF (or other indicated proteins or peptides), after incubation for 30 min at 30° C., stage 2 of the assay was initiated by the addition of 30 μl of a mixture made up of Buffer B containing 2.5 μM PKI, 1 μM microcystin-LR, 10 mM Mg(Ac)2, 100 μM [γ^32P]ATP (200-400 cpm/pmol), 100 μM of the peptide RPRTAAF (SEQ ID NO:13) and 1.25% (by vol) Triton X-100. After 10 min at 30° C., the reactions were terminated by spotting the reaction mixture on to P81 phosphocellulose paper. The papers were washed in 75 mM phosphoric acid and analysed as described previously. A control reaction in which GST-PKBα was omitted was taken as the blank and was always less than 5% of the activity measured in the presence of GST-PKBα. The basal GST-PKBα activity is the activity measured in the absence of PDK1. 1 Unit of GST-PKBα activity was that amount of enzyme required to catalyse the phosphorylation of 1 nmol of the peptide RPRTAAF (SEQ ID NO:13) in 1 min. The assays were linear with time up to a final concentration of 3 U/ml of PDK1 activity in the assay.

T1 sequence (O15530 whole entry): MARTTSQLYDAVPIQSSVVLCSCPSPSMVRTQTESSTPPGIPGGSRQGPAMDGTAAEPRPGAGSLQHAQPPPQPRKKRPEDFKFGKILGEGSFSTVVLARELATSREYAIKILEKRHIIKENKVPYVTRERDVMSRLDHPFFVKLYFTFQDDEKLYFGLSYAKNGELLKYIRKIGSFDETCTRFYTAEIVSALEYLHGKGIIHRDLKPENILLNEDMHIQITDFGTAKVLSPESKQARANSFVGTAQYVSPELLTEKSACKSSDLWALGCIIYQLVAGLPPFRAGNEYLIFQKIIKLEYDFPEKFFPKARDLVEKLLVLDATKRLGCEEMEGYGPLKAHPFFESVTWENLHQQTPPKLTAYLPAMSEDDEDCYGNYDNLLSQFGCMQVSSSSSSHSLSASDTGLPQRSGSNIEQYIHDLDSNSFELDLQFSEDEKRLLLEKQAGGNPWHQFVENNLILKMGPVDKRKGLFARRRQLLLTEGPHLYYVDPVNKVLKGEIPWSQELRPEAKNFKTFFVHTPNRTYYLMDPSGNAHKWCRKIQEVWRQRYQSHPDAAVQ
T1 sequence (Q16513 908-984 partner): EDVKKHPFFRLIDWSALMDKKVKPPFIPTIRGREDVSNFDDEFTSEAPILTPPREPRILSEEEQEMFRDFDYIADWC

| Compound | phosphorylation of GST-PKBα at Ser473 (GST-PIF/PDK1 complex) | rate at which GST-PIF/PDK1 complex activates GST-ΔPH-PKBα, presence versus absence of lipid (PDK1) | other results |
| --- | --- | --- | --- |
| CCCCCCCCCCCCCCCC(=O)OCC(COP(=O)(O)OC1C(O)C(O)C(OP(=O)(O)O)C(OP(=O)(O)O)C1O)OC(=O)CCCCCCCCCCCCCCC (stereo not drawn) [Lipid 3, sn-1,2-dipalmitoyl PtdIns(3,4)P2] | may also be effective | ~4 fold | phosphorylation of GST-PKBα at Ser473 (GST-PIF/PDK1 complex; listed as PtdIns(3,4)P2): strongly phosphorylated |
| PtdIns(4,5)P2 [Lipid 5] | did not induce | do not increase |  |
| CCCCC/C=C\C/C=C\C/C=C\C/C=C\CCCC(=O)O[C@H](COC(=O)CCCCCCCCCCCCCCCCC)COP(=O)(O)OC1[C@@H](O)[C@H](OP(=O)(O)O)C(OP(=O)(O)O)[C@H](OP(=O)(O)O)[C@H]1O (stereo partly drawn) [Lipid 9, sn-1-stearoyl, 2-arachidonoyl L-PtdIns(3,4,5,)P3] | failed to induce a significant phosphorylation; also recorded: may not induce |  |  |
| CCCCC/C=C\C/C=C\C/C=C\C/C=C\CCCC(=O)O[C@H](COC(=O)CCCCCCCCCCCCCCCCC)COP(=O)(O)O[C@H]1[C@@H](O)[C@H](OP(=O)(O)O)[C@@H](OP(=O)(O)O)[C@H](OP(=O)(O)O)[C@H]1O [Lipid 8, sn-1-stearoyl, 2-arachidonoyl D-PtdIns(3,4,5,)P3] | highly effective; also recorded: may be capable of enhancing | ~4 fold | phosphorylation of GST-PKBα at Ser473 (GST-PIF/PDK1 complex; listed as PtdIns(3,4,5)P3): strongly phosphorylated; enhancement of the rate at which PDK1 complexed to PIF activates GST-ΔPH-PKBα (PDK1; His-PDK1/GST-PIF*, presence versus absence of lipid): 3 to 4 fold; rate at which His-PDK1 activates GST-ΔPH-PKBα, presence versus absence of lipid (PDK1; His-PDK1 alone, no PIF): the same |
| sn-2-ste aroyl, 3-arachidonoyl L-PtdIns(3,4,5,)P3 [Lipid 11] | failed to induce a significant phosphorylation; also recorded: may not induce |  |  |
| CCCCC/C=C\C/C=C\C/C=C\C/C=C\CCCC(=O)OC[C@@H](COP(=O)(O)O[C@H]1[C@@H](O)[C@H](OP(=O)(O)O)[C@@H](OP(=O)(O)O)[C@H](OP(=O)(O)O)[C@H]1O)OC(=O)CCCCCCCCCCCCCCCCC [Lipid 10, sn-2-stearoyl, 3-arachidonoyl D-PtdIns(3,4,5,)P3] | highly effective; also recorded: may be capable of enhancing |  |  |
| CCCCCCCCCCCCCCCC(=O)OC[C@H](COP(=O)(O)OC1[C@H](O)[C@H](OP(=O)(O)O)C(OP(=O)(O)O)[C@H](OP(=O)(O)O)[C@H]1O)OC(=O)CCCCCCCCCCCCCCC (stereo partly drawn) [Lipid 6, sn-1,2-dipalmitoyl D-PtdIns(3,4,5)P3] | may also be effective |  |  |

The next lines start with results.

| phosphorylation of GST-PKBα at Ser473 (GST-PIF/PDK1 complex) | Compound | rate at which GST-PIF/PDK1 complex activates GST-ΔPH-PKBα, presence versus absence of lipid (PDK1) | other results |
| --- | --- | --- | --- |
| did not induce | PtdIns(3,5)P2 [Lipid 4] |  |  |
| did not induce | PtdIns-3P [Lipid 2] | do not increase |  |
| may also be effective | CCCCC/C=C\C/C=C\CCCCCCCC(=O)OCC(COP(=O)(O)OC1C(O)C(OP(=O)(O)O)C(OP(=O)(O)O)C(OP(=O)(O)O)C1O)OC(=O)CCCCCCC/C=C\C/C=C\CCCCC (racemic) [Lipid 7, rac-1,2-dilinoleoyl phosphatidyl D/L-myo-inositol 3,4,5-trisphosphate] |  |  |
